Results published in patent US10933063B2 (priority 2017, dated 2021).

Target: BTK (Homo sapiens (Human), UniProt Q06187)
Assay: biochemical
Procedure: Btk kinase activity was determined using a homogenous time resolved fluorescence (HTRF) methodology. Measurements were performed in a reaction volume of 15 μL using 384-well assay plates. Kinase enzyme, inhibitor, ATP and 1 μM peptide substrate were incubated in a reaction buffer compose of Hepes50 mM (pH7.0), NaN3 0.02%, BSA 0.01%, Orthocanadate 0.1 mM. […] For each compound, enzyme activity as measured at various concentrations of compound, Negative control reactions were performed in the absence of inhibitor in two replicates and eight no enzyme controls were used to determine baseline fluorescence levels.

Sequence of BTK (Q06187 whole entry, looked up, species assumed): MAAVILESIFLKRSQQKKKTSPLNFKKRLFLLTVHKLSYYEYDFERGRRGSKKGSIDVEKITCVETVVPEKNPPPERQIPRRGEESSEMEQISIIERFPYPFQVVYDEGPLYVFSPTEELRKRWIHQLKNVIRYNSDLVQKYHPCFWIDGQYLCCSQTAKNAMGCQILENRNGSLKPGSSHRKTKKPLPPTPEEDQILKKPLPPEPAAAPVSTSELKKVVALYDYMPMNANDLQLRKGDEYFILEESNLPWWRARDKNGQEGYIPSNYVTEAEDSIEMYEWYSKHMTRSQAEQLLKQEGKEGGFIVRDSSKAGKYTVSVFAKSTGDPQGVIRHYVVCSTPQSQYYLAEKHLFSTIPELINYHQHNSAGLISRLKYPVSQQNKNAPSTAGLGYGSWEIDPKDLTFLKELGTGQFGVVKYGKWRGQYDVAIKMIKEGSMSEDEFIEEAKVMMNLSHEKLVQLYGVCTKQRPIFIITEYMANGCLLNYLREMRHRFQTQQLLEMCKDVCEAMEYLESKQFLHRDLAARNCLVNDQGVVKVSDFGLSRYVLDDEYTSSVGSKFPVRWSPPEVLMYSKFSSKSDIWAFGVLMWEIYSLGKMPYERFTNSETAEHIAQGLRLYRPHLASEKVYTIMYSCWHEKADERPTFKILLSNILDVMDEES

## CC#CC(=O)N1CCCC[C@H]1c1nc(-c2ccc(Oc3cccc(OC)c3)cc2)c2c(C)nccn12 [Example 49, (S)-1-(2-(1-(4-(3-methoxyphenoxy)phenyl)-8-methylimidazo[1,5-a]pyrazin-3-yl)piperidin-1-yl)but-2-yn-1-one]
  IC50: 10 to 100 nM

## C=CC(=O)N1CCC[C@H]1c1nc(-c2ccc(COc3ccccc3)cc2)c2cnccn12 [Example 143, (S)-1-(2-(1-(4-(phenoxymethyl)phenyl)imidazo[1,5-a]pyrazin-3-yl)pyrrolidin-1-yl)prop-2-en-1-one]
  IC50: 10 to 100 nM

## CC#CC(=O)N1CC[C@@H](c2nc(-c3ccc(Oc4cccc(OC)c4F)cc3)c3cncc(OCCOC)n23)C1 [Example 103, (R)-1-(3-(1-(4-(2-fluoro-3-methoxyphenoxy)phenyl)-5-(2-methoxyethoxy)imidazo[1,5-a]pyrazin-3-yl)pyrrolidin-1-yl)but-2-yn-1-one]
  IC50: 10 to 100 nM

## C=CC(=O)N1CCC[C@H]1c1nc(-c2ccc(Oc3cccc(C)c3)cc2)c2cnccn12 [Example 10, (S)-1-(2-(1-(4-(m-tolyloxy)phenyl)imidazo[1,5-a]pyrazin-3-yl)pyrrolidin-1-yl)prop-2-en-1-one]
  IC50: 10 to 100 nM

## C=CC(=O)N1CCCC[C@H]1c1nc(-c2ccc(C(=O)Nc3ccccn3)cc2)c2c(C)ncc(C)n12 [Example 188, (S)-4-(3-(1-acryloylpiperidin-2-yl)-5,8-dimethylimidazo [1,5-a]pyrazin-1-yl)-N-(pyridin-2-yl)benzamide]
  IC50: 10 to 100 nM

## CC#CC(=O)N1CCC[C@H]1c1nc(-c2ccc(Oc3cccc(F)c3)cc2)c2cnccn12 [Example 7, (S)-1-(2-(1-(4-(3-fluorophenoxy)phenyl)imidazo[1,5-a]pyrazin-3-yl)pyrrolidin-1-yl)but-2-yn-1-one]
  IC50: 10 to 100 nM

## C=CC(=O)N1CCCC[C@H]1c1nc(-c2ccc(Oc3cccc(C)c3)cc2)c2cnccn12 [Example 50, (S)-1-(2-(1-(4-(m-tolyloxy)phenyl)imidazo[1,5-a]pyrazin-3-yl)piperidin-1-yl)prop-2-en-1-one]
  IC50: 10 to 100 nM

## C=CC(=O)N1CCC[C@H]1c1nc(-c2ccc(C(=O)Nc3cccc(OC)c3F)cc2)c2cnccn12 [Example 165, (S)-4-(3-(1-acryloylpyrrolidin-2-yl)imidazo[1,5-a]pyrazin-1-yl)-N-(2-fluoro-3-methoxyphenyl)benzamide]
  IC50: 100 to 1000 nM

## CC#CC(=O)N1CCC[C@H]1c1nc(-c2ccc(OCc3ccc(F)c(F)c3)cc2)c2cnccn12 [Example 134, (S)-1-(2-(1-(4-((3,4-difluorobenzyl)oxy)phenyl)imidazo[1,5-a]pyrazin-3-yl)pyrrolidin-1-yl)but-2-yn-1-one]
  IC50: 1000 to 10000 nM

## CC#CC(=O)N1CCC[C@H]1c1nc(-c2ccc(OCc3cccc(F)c3F)cc2)c2cnccn12 [Example 127, (S)-1-(2-(1-(4-((2,3-difluorobenzyl)oxy)phenyl)imidazo[1,5-a]pyrazin-3-yl)pyrrolidin-1-yl)but-2-yn-1-one]
  IC50: 1000 to 10000 nM

## CC#CC(=O)N1CCCC[C@H]1c1nc(-c2ccc(Oc3cccc(OC)c3F)cc2)c2cncc(C)n12 [Example 79, (S)-1-(2-(1-(4-(2-fluoro-3-methoxyphenoxy)phenyl)-5-methylimidazo[1,5-a]pyrazin-3-yl)piperidin-1-yl)but-2-yn-1-one]
  IC50: 100 to 1000 nM

## C=CC(=O)N1CCCC[C@H]1c1nc(-c2ccc(COc3cccc(F)c3F)cc2)c2cnccn12 [Example 158, (S)-1-(2-(1-(4-((2,3-difluorophenoxy)methyl)phenyl)imidazo[1,5-a]pyrazin-3-yl)piperidin-1-yl)prop-2-en-1-one]
  IC50: 100 to 1000 nM

## C=CC(=O)N1CCC[C@H]1c1nc(-c2ccc(Oc3cccc(F)c3)cc2)c2cnccn12 [Example 11, (S)-1-(2-(1-(4-(3-fluorophenoxy)phenyl)imidazo[1,5-a]pyrazin-3-yl)pyrrolidin-1-yl)prop-2-en-1-one]
  IC50: 10 to 100 nM

## C=CC(=O)N1CCC[C@H]1c1nc(-c2ccc(Oc3cccc(OC)c3F)cc2)c2c(C(N)=O)nccn12 [Example 37, (S)-3-(1-acryloylpyrrolidin-2-yl)-1-(4-(2-fluoro-3-methoxyphenoxy)phenyl)imidazo[1,5-a]pyrazine-8-carboxamide]
  IC50: 1000 to 10000 nM

## C=CC(=O)N1CC[C@@H](c2nc(-c3ccc(C(=O)Nc4cc(C(F)(F)F)ccn4)cc3)c3cnccn23)C1 [Example 195, (R)-4-(3-(1-acryloylpyrrolidin-3-yl)imidazo[1,5-a]pyrazin-1-yl)-N-(4-(trifluoromethyl)pyridin-2-yl)benzamide]
  IC50: 10 to 100 nM

## C=CC(=O)N1CC[C@@H](c2nc(-c3ccc(Oc4cccc(OC)c4F)cc3)c3cncc(OC(C)C)n23)C1 [Example 114, (R)-1-(3-(1-(4-(2-fluoro-3-methoxyphenoxy)phenyl)-5-isopropoxyimidazo[1,5-a]pyrazin-3-yl)pyrrolidin-1-yl)prop-2-en-1-one]
  IC50: 10 to 100 nM

## CC#CC(=O)N1CCC[C@H]1c1nc(-c2ccc(Oc3cccc(OC(C)C)c3)cc2)c2cnccn12 [Example 39, (S)-1-(2-(1-(4-(3-isopropoxyphenoxy)phenyl)imidazo[1,5-a]pyrazin-3-yl)pyrrolidin-1-yl)but-2-yn-1-one]
  IC50: 100 to 1000 nM

## C=CC(=O)N1CCC[C@H]1c1nc(-c2ccc(COc3ccc(F)cc3)cc2)c2cnccn12 [Example 126, (S)-1-(2-(1-(4-((4-fluorophenoxy)methyl)phenyl)imidazo[1,5-a]pyrazin-3-yl)pyrrolidin-1-yl)prop-2-en-1-one]
  IC50: 10 to 100 nM

## CC#CC(=O)N1CC[C@@H](c2nc(-c3ccc(Oc4cccc(OC)c4F)cc3)c3cncc(OCCN(C)C)n23)C1 [Example 90, (R)-1-(3-(5-(2-(dimethylamino)ethoxy)-1-(4-(2-fluoro-3-methoxyphenoxy)phenyl)imidazo[1,5-a]pyrazin-3-yl)pyrrolidin-1-yl)but-2-yn-1-one]
  IC50: 10 to 100 nM

## CC#CC(=O)N1CC[C@@H](c2nc(-c3ccc(C(=O)Nc4cc(C(F)(F)F)ccn4)cc3)c3cnccn23)C1 [Example 211, (R)-4-(3-(1-(but-2-ynoyl)pyrrolidin-3-yl)imidazo[1,5-a]pyrazin-1-yl)-N-(4-(trifluoromethyl)pyridin-2-yl)benzamide]
  IC50: 10 to 100 nM

## CC#CN1CCC[C@H]1c1nc(-c2ccc(C(=O)Nc3cc(C(F)(F)F)ccn3)cc2)c2c(CO)nccn12 [Example 210, (S)-4-(8-(hydroxymethyl)-3-(1-(prop-1-yn-1-yl)pyrrolidin-2-yl)imidazo [1,5-a]pyrazin-1-yl)-N-(4-(trifluoromethyl)pyridin-2-yl)benzamide]
  IC50: 100 to 1000 nM

## C=CC(=O)N1CCC[C@H]1c1nc(-c2ccc(OCc3cccc(F)c3F)cc2)c2cnccn12 [Example 124, (S)-1-(2-(1-(4-((2,3-Difluorobenzyl)oxy)phenyl)imidazo[1,5-a]pyrazin-3-yl)pyrrolidin-1-yl)prop-2-en-1-one]
  IC50: 10 to 100 nM

## COc1cccc(Oc2ccc(-c3nc([C@@H]4CCCN4Cc4ccccc4)n4ccncc34)cc2)c1F [Example 32, (S)-3-(1-benzylpyrrolidin-2-yl)-1-(4-(2-fluoro-3-methoxyphenoxy)phenyl)imidazo[1,5-a]pyrazine]
  IC50: 1000 to 10000 nM

## C=CC(=O)N1CCCC[C@H]1c1nc(-c2ccc(Oc3cccc(OC)c3F)cc2)c2c(C(F)(F)F)nccn12 [Example 121, (S)-1-(2-(1-(4-(2-fluoro-3-methoxyphenoxy)phenyl)-8-(trifluoromethyl)imidazo[1,5-a]pyrazin-3-yl)piperidin-1-yl)prop-2-en-1-one]
  IC50: 1000 to 10000 nM

## C=CC(=O)N1CCC[C@H]1c1nc(-c2ccc(Oc3ccccc3)cc2Cl)c2cnccn12 [Example 13, (S)-1-(2-(1-(2-chloro-4-phenoxyphenyl)imidazo[1,5-a]pyrazin-3-yl)pyrrolidin-1-yl)prop-2-en-1-one]
  IC50: 10 to 100 nM

## CC#CC(=O)N1CCC[C@H]1c1nc(-c2ccc(C(=O)Nc3cccc(OC)c3F)cc2)c2cnccn12 [Example 164, (S)-4-(3-(1-(But-2-ynoyl)pyrrolidin-2-yl)imidazo[1,5-a]pyrazin-1-yl)-N-(2-fluoro-3-methoxyphenyl)benzamide]
  IC50: 1000 to 10000 nM

## CC#CC(=O)N1CCCC[C@H]1c1nc(-c2ccc(Oc3cccc(F)c3F)cc2)c2c(C)nccn12 [Example 60, (S)-1-(2-(1-(4-(2,3-difluorophenoxy)phenyl)-8-methylimidazo[1,5-a]pyrazin-3-yl)piperidin-1-yl)but-2-yn-1-one]
  IC50: 10 to 100 nM

## CC#CC(=O)N1CCCC[C@H]1c1nc(-c2ccc(COc3ccc(F)c(F)c3)cc2)c2cnccn12 [Example 149, (S)-1-(2-(1-(4-((3,4-difluorophenoxy)methyl)phenyl)imidazo[1,5-a]pyrazin-3-yl)piperidin-1-yl)but-2-yn-1-one]
  IC50: 1000 to 10000 nM

## CC#CC(=O)N1CCCC[C@H]1c1nc(-c2ccc(Oc3cccc(OC)c3F)cc2)c2c(C(=O)OC)nccn12 [Example 67, methyl (S)-3-(1-(but-2-ynoyl)piperidin-2-yl)-1-(4-(2-fluoro-3-methoxyphenoxy)phenyl)imidazo[1,5-a]pyrazine-8-carboxylate]
  IC50: 1000 to 10000 nM

## CC#CC(=O)N1CCC[C@H]1c1nc(-c2ccc(COc3ccccc3)cc2)c2cnccn12 [Example 144, (S)-1-(2-(1-(4-(phenoxymethyl)phenyl)imidazo[1,5-a]pyrazin-3-yl)pyrrolidin-1-yl)but-2-yn-1-one]
  IC50: 1000 to 10000 nM

## C=CC(=O)N1CC[C@@H](c2nc(-c3ccc(Oc4cccc(OC)c4F)cc3)c3c(O)nccn23)C1 [Example 113, (R)-1-(3-(1-(4-(2-fluoro-3-methoxyphenoxy)phenyl)-8-hydroxyimidazo[1,5-a]pyrazin-3-yl)pyrrolidin-1-yl)prop-2-en-1-one]
  IC50: 100 to 1000 nM

## C=CC(=O)N1CCC[C@H]1c1nc(-c2ccc(OCc3cccc(Cl)c3)cc2)c2cnccn12 [Example 141, (S)-1-(2-(1-(4-((3-chlorobenzyl)oxy)phenyl)imidazo[1,5-a]pyrazin-3-yl)pyrrolidin-1-yl)prop-2-en-1-one]
  IC50: 10 to 100 nM

## CC#CC(=O)N1CCCC[C@H]1c1nc(-c2ccc(Oc3cccc(OC)c3F)cc2)c2c(C)ncc(C)n12 [Example 81, (S)-1-(2-(1-(4-(2-fluoro-3-methoxyphenoxy)phenyl)-5,8-dimethylimidazo[1,5-a]pyrazin-3-yl)piperidin-1-yl)but-2-yn-1-one]
  IC50: 100 to 1000 nM
